Results reported in patent publication US20200131669A1, “CYCLIC PEPTIDE COMPOUND HAVING HIGH MEMBRANE PERMEABILITY, AND LIBRARY CONTAINING SAME” (Chugai Seiyaku Kabushiki Kaisha, priority 2017, published 2020).
Starred links: 1 amine or outer side, 2 acyl side, 3 side chain; linkers in the order of their positions; H or OH if unused. Positions of bridges follow the written chain, without caps; N, C: chain ends. Non-standard residues stand in square brackets, D forms with d. Residues, ends and D or L forms follow the SMILES beside them. ξ: configuration not given here. *: point of attachment. Glu(NHSO2Me) = CS(=O)(=O)NC(=O)CC[C@H](N)C(=O)O; NMePhe(3-Cl) = CN[C@@H](Cc1cccc(Cl)c1)C(=O)O; hPhe(3-Cl) = N[C@@H](CCc1cccc(Cl)c1)C(=O)O; X14 = O=C([C@H](CCc1ccccc1Cl)N[*:1])[*:2]; NMeW = CN[C@@H](Cc1c[nH]c2ccccc12)C(=O)O; Ethyl(2-morpholino) = C1CN(CC*)CCO1; Gly(NCH2CH2Ph) = O=C(O)CNCCc1ccccc1; X9 = O=C(CN(CCOc1ccccc1)[*:1])[*:2]; hhPhe = N[C@@H](CCCc1ccccc1)C(=O)O; Hyp = O=C(O)[C@@H]1C[C@@H](O)CN1; NMeF = CN[C@@H](Cc1ccccc1)C(=O)O; NMeGABA = CN(CCCC(=O)[*:2])[*:1]; NMeI = CC[C@H](C)[C@H](NC)C(=O)O; hPhe = N[C@@H](CCc1ccccc1)C(=O)O; ξThr(3R) = C[C@@H](O)C(N)C(=O)O; NMeL = CN[C@@H](CC(C)C)C(=O)O; Propyl(2R-OH) = C[C@@H](O)C*; NMeNva = CCC[C@H](NC)C(=O)O; NMeV = CN[C@H](C(=O)O)C(C)C; NMeAbu = CC[C@H](NC)C(=O)O; NMeA = CN[C@@H](C)C(=O)O; Piperidide = C1CCN(*)CC1; NBuGly = CCCCNCC(=O)O; NPrGly = CCCNCC(=O)O; ξS = NC(CO)C(=O)O; Sar = CNCC(=O)O; tBu = CC(C)(C)*

Assay: Caco-2 membrane permeability, improved method as used in the following Examples (96-well, 20 to 24 h preincubation)
Format: in vitro ADME
Settings: human, Caco-2, Caco-2
How it was run: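 Papp (cm/sec) was derived from LC/MS of basal samples collected 180 min after apical dosing in FaSSIF/HBSS pH 6.0 with 1% DMSO, against a basal HBSS pH 7.4 receiver containing 4% BSA. Three-week Caco-2 cultures were first preincubated with compound in DMEM+FaSSIF at 37 °C for 20–24 h.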

Row | Compound | Papp A→B at 180 min [×10⁻⁶ cm/s]
1 | CCC[C@H]1C(=O)N[C@@H](COC(C)(C)C)C(=O)N(C)[C@@H](CC(C)C)C(=O)N(C)[C@@H](CC(C)C)C(=O)N[C@@H](CC(C)C)C(=O)N[C@@H]([C@@H](C)O)C(=O)N2C[C@H](OCC)C[C@H]2C(=O)N[C@@H](Cc2ccccc2)C(=O)N(C)[C@@H](CC(C)C)C(=O)N[C@H](C(=O)N2CCCCC2)CC(=O)N[C@H](C(C)C)C(=O)N1C [pd380] ([dV][NMeNva]S(tBu)[NMeL][NMeL]LT[Hyp](Et)F[NMeL]D-Piperidide; lactam N-11) | 3.8
2 | CC[C@H](C)[C@@H]1NC(=O)[C@H](Cc2ccccc2)N(C)C(=O)CN(C)C(=O)C[C@@H](C(=O)N2CCCCC2)NC(=O)[C@H](C)N(C)C(=O)[C@H](CCCc2ccccc2)NC(=O)[C@H](CC(C)C)N(C)C(=O)[C@H](Cc2ccccc2)N(C)C(=O)CN(C)C(=O)[C@H]([C@@H](C)O)NC(=O)[C@H](CC(C)C)N(C)C1=O [pd367] ([Sar][NMeF]I[NMeL]T[Sar][NMeF][NMeL][hhPhe][NMeA]D-Piperidide; lactam N-11) | 1.5
3 | CC[C@H](C)[C@@H]1NC(=O)[C@H](CC(C)C)N(C)C(=O)CN(C)C(=O)C[C@@H](C(=O)N2CCCCC2)NC(=O)[C@H](CC(C)C)N(C)C(=O)[C@@H](COC(C)(C)C)NC(=O)[C@H](CC)N(C)C(=O)[C@H](Cc2ccccc2)N(C)C(=O)CN(CCc2ccccc2)C(=O)[C@H]([C@@H](C)O)NC(=O)[C@H](CC)N(C)C1=O [pd411] ([Sar][NMeL]I[NMeAbu]T[Gly(NCH2CH2Ph)][NMeF][NMeAbu][dS](tBu)[NMeL]D-Piperidide; lactam N-11) | 3.3
4 | CCCCN1CC(=O)N(C)[C@@H](C)C(=O)N[C@@H](COC(C)(C)C)C(=O)N(C)[C@@H](CC(C)C)C(=O)N(CCOc2ccccc2)CC(=O)N[C@H](C(=O)N2CCCCC2)CC(=O)N[C@H](CC(C)C)C(=O)N(C)[C@@H](Cc2ccccc2)C(=O)N[C@@H](CC(C)C)C(=O)N(C)[C@@H](CC)C(=O)N[C@@H]([C@@H](C)O)C1=O [pd422] ([dL][NMeF]L[NMeAbu]T[NBuGly][NMeA]S(tBu)[NMeL][X9]D-Piperidide; lactam N-11) | 1
5 | CCO[C@@H]1C[C@H]2C(=O)N[C@H](C(=O)N3CCCCC3)CC(=O)N[C@@H](C(C)C)C(=O)NCC(=O)N(C)[C@@H](CC(C)C)C(=O)N(C)[C@@H](CC(C)C)C(=O)N(C)[C@@H](CC(C)C)C(=O)N(C)[C@@H](Cc3ccccc3)C(=O)N[C@@H]([C@@H](C)O)C(=O)N(C)[C@@H](Cc3ccccc3)C(=O)N(C)[C@@H](CC(C)C)C(=O)N2C1 [pd374] (VG[NMeL][NMeL][NMeL][NMeF]T[NMeF][NMeL][Hyp](Et)D-Piperidide; lactam N-11) | 2.5
6 | CC(C)C[C@H]1C(=O)N[C@@H](COC(C)(C)C)C(=O)N(C)[C@@H](Cc2ccccc2)C(=O)N(C)[C@@H](C(C)C)C(=O)N[C@H](C(=O)N2CCCCC2)CC(=O)N[C@H](C(C)C)C(=O)N(C)[C@@H](Cc2ccccc2)C(=O)N[C@@H](COc2cccc(Cl)c2)C(=O)N(C)[C@@H](C)C(=O)N[C@@H]([C@@H](C)O)C(=O)N(C)CC(=O)N1C [pd342] | 1.9
7 | CC(C)C[C@@H]1NC(=O)[C@H](CC(C)C)N(C)C(=O)CN(C)C(=O)[C@H]([C@@H](C)O)NC(=O)[C@H](CC(C)C)N(C)C(=O)[C@H](CCc2ccccc2Cl)NC(=O)[C@H](C)N(C)C(=O)[C@@H](C(C)C)NC(=O)C[C@@H](C(=O)N2CCCCC2)NC(=O)[C@H](C(C)C)N(C)C(=O)[C@H](Cc2ccccc2)N(C)C1=O [pd351] ([dV][NMeA][X14][NMeL]T[Sar][NMeL]L[NMeF][NMeV]D-Piperidide; lactam N-11) | 1.9
8 | CCCCN1CC(=O)N(C)[C@@H](CC(C)C)C(=O)N[C@H](C(=O)N2CCCCC2)CC(=O)N(C)[C@@H](CC(C)C)C(=O)N[C@@H](CC(C)C)C(=O)N(C)[C@@H](CC)C(=O)N(C)[C@@H](Cc2ccccc2)C(=O)N[C@@H](CCC(=O)NS(C)(=O)=O)C(=O)N(C)[C@@H](Cc2cccc(Cl)c2)C(=O)N(C)[C@@H](CC(C)C)C(=O)NC([C@@H](C)O)C1=O (stereo partly drawn) [pd64] ([NMeL]L[NMeAbu][NMeF][Glu(NHSO2Me)][NMePhe(3-Cl)][NMeL][ξThr(3R)][NBuGly][NMeL]D-Piperidide; lactam N-11) | 0.15
9 | CC(C)C[C@H]1C(=O)N(C)[C@@H](Cc2ccccc2)C(=O)N[C@@H](COC(C)(C)C)C(=O)N(C)[C@@H](C)C(=O)N[C@H](C(=O)N2CCCCC2)CC(=O)N(C)[C@@H](C)C(=O)N(C)[C@@H](Cc2ccccc2)C(=O)N[C@@H](CCc2ccccc2)C(=O)N(C)[C@@H](CC(C)C)C(=O)N[C@@H]([C@@H](C)O)C(=O)N(C)CC(=O)N1C [pd310] ([NMeA][NMeF][hPhe][NMeL]T[Sar][NMeL][NMeF]S(tBu)[NMeA]D-Piperidide; lactam N-11) | 1.6
10 | CC(C)C[C@H]1C(=O)N[C@H](C(=O)N2CCCCC2)CC(=O)N(C)[C@@H](C)C(=O)N[C@@H](CCc2cccc(Cl)c2)C(=O)N(C)[C@@H](CC(C)C)C(=O)N(C)[C@@H](CC(C)C)C(=O)N[C@@H](C)C(=O)N(C)[C@@H](Cc2ccccc2)C(=O)N(C)[C@@H](C(C)C)C(=O)N[C@@H]([C@@H](C)O)C(=O)N(C)CC(=O)N1C [pd356] ([NMeA][hPhe(3-Cl)][NMeL][NMeL]A[NMeF][NMeV]T[Sar][NMeL]D-Piperidide; lactam N-11) | 1.2
11 | CCCN1CC(=O)N(C)[C@@H](CC(C)C)C(=O)N[C@H](C(=O)N2CCCCC2)CC(=O)N(C)[C@@H](C)C(=O)N[C@@H](COC[C@@H](C)O)C(=O)N(C)[C@@H](CC(C)C)C(=O)N(C)[C@@H](Cc2cccc(Cl)c2)C(=O)N[C@@H](CC(C)C)C(=O)N(C)[C@@H](Cc2ccccc2)C(=O)N(C)[C@@H]([C@@H](C)CC)C(=O)N[C@@H]([C@@H](C)O)C1=O [pd425] ([NMeA]S(Propyl(2R-OH))[NMeL][NMePhe(3-Cl)]L[NMeF][NMeI]T[NPrGly][NMeL]D-Piperidide; lactam N-11) | 1.2
12 | CCCCN1CC(=O)N(C)[C@@H](CC(C)C)C(=O)N[C@H](C(=O)N2CCCCC2)CC(=O)N(C)[C@@H](CC)C(=O)NC(COCCN2CCOCC2)C(=O)N(C)[C@@H](CC(C)C)C(=O)N(C)[C@@H](CC)C(=O)N[C@@H](C(C)C)C(=O)N(C)[C@@H](Cc2ccccc2)C(=O)N(C)[C@@H](CC(C)C)C(=O)N[C@@H]([C@@H](C)O)C1=O (stereo partly drawn) [pd483] ([NMeAbu][ξS](Ethyl(2-morpholino))[NMeL][NMeAbu]V[NMeF][NMeL]T[NBuGly][NMeL]D-Piperidide; lactam N-11) | 1.9
13 | CC(C)C[C@H]1C(=O)N[C@H](C(=O)N2CCCCC2)CC(=O)N(C)CCCC(=O)N(C)[C@@H](CC(C)C)C(=O)N[C@@H](CCc2ccccc2)C(=O)N(C)[C@@H](CC(C)C)C(=O)N(C)[C@@H](Cc2ccccc2)C(=O)N[C@@H](COC(C)(C)C)C(=O)N(C)[C@@H](CC(C)C)C(=O)N[C@@H]([C@@H](C)O)C(=O)N(C)CC(=O)N1C [pd317] ([NMeGABA][NMeL][hPhe][NMeL][NMeF]S(tBu)[NMeL]T[Sar][NMeL]D-Piperidide; lactam N-11) | 1.8

Same assay, conditions: human, Caco-2, Caco-2 (cm/sec)

Row | Compound | Papp A→B at 180 min [×10⁻⁶ cm/s]
14 | CC[C@H](C)[C@@H]1NC(=O)[C@H](CC(C)C)N(C)C(=O)[C@@H](C)NC(=O)C[C@@H](C(=O)N2CCCCC2)NC(=O)[C@H](C(C)C)N(C)C(=O)[C@H](Cc2ccccc2)N(C)C(=O)[C@H](COC(C)(C)C)NC(=O)[C@H](CC(C)C)N(C)C(=O)CN(C)C(=O)[C@H](Cc2ccc(O)cc2)NC(=O)[C@H](C)N(C)C1=O [pd117] ([dA][NMeL]I[NMeA]Y[Sar][NMeL]S(tBu)[NMeF][NMeV]D-Piperidide; lactam N-11) | 0.56
15 | CC(C)C[C@@H]1NC(=O)[C@H](CC(C)C)N(C)C(=O)[C@@H](C)NC(=O)C[C@@H](C(=O)N2CCCCC2)NC(=O)[C@H](Cc2ccccc2)N(C)C(=O)[C@H](Cc2ccccc2)N(C)C(=O)[C@H](C)N(C)C(=O)[C@H]([C@@H](C)O)NC(=O)[C@H](Cc2ccccc2)N(C)C(=O)[C@H](COC(C)(C)C)NC(=O)[C@H](Cc2ccccc2)N(C)C1=O [pd234] ([dA][NMeL]L[NMeF]S(tBu)[NMeF]T[NMeA][NMeF][NMeF]D-Piperidide; lactam N-11) | 0.15
16 | CC(C)C[C@@H]1NC(=O)[C@H](Cc2c[nH]c3ccccc23)N(C)C(=O)[C@@H](C(C)C)NC(=O)C[C@@H](C(=O)N2CCCCC2)NC(=O)[C@H](CC(C)C)N(C)C(=O)[C@H](CC(C)C)N(C)C(=O)[C@H](COC(C)(C)C)NC(=O)[C@H](CC(C)C)N(C)C(=O)CN(C)C(=O)[C@H]([C@@H](C)O)NC(=O)[C@H](CC(C)C)N(C)C1=O [pd106] ([dV][NMeW]L[NMeL]T[Sar][NMeL]S(tBu)[NMeL][NMeL]D-Piperidide; lactam N-11) | 0.36
17 | CC(C)C[C@@H]1NC(=O)[C@H](Cc2ccccc2)N(C)C(=O)[C@H](COC(C)(C)C)NC(=O)[C@H](Cc2ccccc2)N(C)C(=O)[C@H](Cc2ccccc2)N(C)C(=O)[C@H](CC(C)C)N(C)C(=O)[C@@H](CC(C)C)NC(=O)C[C@@H](C(=O)N2CCCCC2)NC(=O)[C@H](Cc2ccccc2)N(C)C(=O)[C@H]([C@@H](C)O)NC(=O)[C@H](CC(C)C)N(C)C1=O [pd243] ([dL][NMeL][NMeF][NMeF]S(tBu)[NMeF]L[NMeL]T[NMeF]D-Piperidide; lactam N-11) | 0.057

Same assay, conditions: human; Papp, Caco-2 membrane permeability, improved method; read-out: Caco-2

Row | Compound | Papp A→B at 180 min [×10⁻⁶ cm/s]
18 | CC(C)C[C@H]1C(=O)N[C@@H]([C@@H](C)O)C(=O)N(C)CC(=O)N(C)[C@@H](Cc2ccccc2)C(=O)N(C)[C@@H](CC(C)C)C(=O)N[C@@H](C(C)C)C(=O)N(C)[C@@H](CC(C)C)C(=O)N[C@H](C(=O)N2CCCCC2)CC(=O)N(C)CC(=O)N(C)[C@@H](C(C)C)C(=O)N[C@@H](CCc2ccccc2)C(=O)N1C [pd319] ([Sar][NMeV][hPhe][NMeL]T[Sar][NMeF][NMeL]V[NMeL]D-Piperidide; lactam N-11) | 2.2
